# Assay results from patent US7250153B2, “Contrast media formulations having improved biological tolerance” (Biophysica Research, Inc., priority 2002, dated 2007).
# “And” between values parts separate entries of the source, which are not always exact repeats. Identical values can stand only once. Like-named read-outs stand apart in the source and are kept apart here.
# How the values were obtained:
# rats [1] = conditions: Control, formulated in TRIS/HCl; intravenous; published (Heglund et al. 1995); cited from earlier work
# mice [2] = conditions: Control, formulated in TRIS/HCl; intravenous; published (Heglund et al. 1995); cited from earlier work
# [3] = Separate study: stability of iosimenol after autoclaving in TRIS/HCl and TRIS/citric acid (pH, iodide release); assay type: physicochemical; conditions: 121° C. for 20 min; for pH after autoclaving / ΔI−: pre-autoclaving pH 7.00, Ca/Na EDTA 0.1 mg/ml, 340-355 mg I/ml
# Experimental: (§1) A 5 micron C18 column 25 cm×4.6 mm ID was eluted with 30% acetonitrile/70% 0.05 M KH2PO4 containing 7 ml/L of 40% tetrabutyl ammonium hydroxide. 20 μl of a 10 μg I^−/ml was the standard. 20 μl of a test sample of iosimenol was injected and UV absorbance measured at 230 nm, 0.2 AU. Under these conditions, the iodide standard eluted after 5.6 minutes and gave an area of “X” counts.
# (§2) Iodide was alternately determined by extraction and spectrophotometry according to USP24/NF19, p 911 (1995). In general, the solution containing iodide is oxidized in the presence of acid, with sodium nitrite and then extracted into toluene which is then read at a wavelength of 500 nm. Comparison of standard samples with experimental samples yields the amount of iodide present in the sample.
# mice [4] = assay: Intravenous LD50 (systemic tolerance) in mice; assay type: in vivo
# Experimental: (§3) To examine the effects of the TRIS/citrate buffer system of this invention on the biological tolerance, using standard methods, we assessed intravenous murine and rat LD50 of iosimenol formulated either in TRIS/HCl or in the novel TRIS/citric acid buffers, and compared the results with those published for the clinically employed nonionic dimer iodixanol (formulated in TRIS/HCl buffer; Heglund IF et al., Acta Radiol. Suppl. 1995:399:69-82). Murine and rat LD50 were obtained by 1 ml/min injection of 340 mg I/ml; data at 7 days and based on the 50% survival of the animals was expressed as g I/kg bw (Table 3).
# [5] = Stability of iosimenol to autoclave sterilization (20 min at 121° C.), free iodide measured; assay type: physicochemical; conditions: for I− after / I− before: single samples
# Experimental: Samples of Iosimenol were formulated in 20 mM TRIS+5 mM citric acid, TRIS/HCl and 10 mM TRIS+3.3 mM citrate. Samples were then autoclaved for 20 minutes at 121° C. and the amounts of free iodine measured.
# as §1, §2
# rats [6] = assay: Intravenous LD50 (systemic tolerance) in rats; assay type: in vivo
# Experimental: as §3
# [7] = Buffer 10 mM TRIS + 3 mM citric acid
smiles,measurement,setting,value
CC(=O)N(CC(O)CN(C(C)=O)c1c(I)c(C(=O)NCC(O)CO)c(I)c(C(=O)NCC(O)CO)c1I)c1c(I)c(C(=O)NCC(O)CO)c(I)c(C(=O)NCC(O)CO)c1I (stereo not shown) [Iodixanol],LD50 rats,rats [1],21.0 g I/kg bw
same,LD50 mice,mice [2],21.0 g I/kg bw
"NC(=O)c1c(I)c(C(=O)NCC(O)CO)c(I)c(N(CC(O)CO)C(=O)CC(=O)N(CC(O)CO)c2c(I)c(C(N)=O)c(I)c(C(=O)NCC(O)CO)c2I)c1I (stereo not shown) [Iosimenol, N,N′-Bis[3-carbamoyl-5-(2,3-dihydroxypropyl-carbamoyl)-2,4,6-triiodophenyl]-N,N′-bis(2,3-dihydroxypropyl)-malonamide]",pH after autoclaving,[3]; [7],6.90
same,ΔI−,[3]; [7],+24.2 μg/ml
same,pH after autoclaving,[3]; Buffer 10 mM TRIS/HCl,6.49
same,ΔI−,[3]; Buffer 10 mM TRIS/HCl,+8.7 μg/ml
same,pH after autoclaving,[3]; Buffer 20 mM TRIS/HCl,7.00
same,ΔI−,[3]; Buffer 20 mM TRIS/HCl,+7 μg/ml
same,Stability after autoclaving (in words),[3]; TRIS/citric acid in a non-equivalent ratio compared with TRIS/HCl buffer,lower stability
same,LD50 mice,"mice [4]; mouse, in vivo, iv",22.0 g I/kg bw
same,LD50 in 20 mM TRIS with 5 mM citrate compared with 20 mM TRIS/HCl (in words),"mice [4]; murine, intravenous",statistically significantly higher LD50
same,Stability on autoclaving (in words),"[5]; 20 mM TRIS and 5 mM citric acid, pH about 6.5 to 7.5, compared with TRIS/HCl or TRIS/citrate in molar equivalent ratio",always somewhat less or equally stable
same,"I− after, Avg.","[5]; Buffer 10 mM TRIS + 3.3 mM citrate, after 20 min at 121° C., average",21.84 µg/mL
same,I− after,"[5]; Buffer 10 mM TRIS + 3.3 mM citrate, after 20 min at 121° C.",22.34 µg/mL and 21.51 µg/mL and 21.66 µg/mL
same,ΔI−,"[5]; Buffer 10 mM TRIS + 3.3 mM citrate, after minus before 20 min at 121° C.",+17.84 μg/ml
same,"I− before, Avg.","[5]; Buffer 10 mM TRIS + 3.3 mM citrate, before autoclaving, average",4.00 µg/mL
same,I− before,"[5]; Buffer 10 mM TRIS + 3.3 mM citrate, before autoclaving",3.99 µg/mL and 4.17 µg/mL and 3.83 µg/mL
same,"I− after, Avg.","[5]; Buffer 20 mM TRIS + 5 mM citric acid, after 20 min at 121° C., average",16.90 µg/mL
same,I− after,"[5]; Buffer 20 mM TRIS + 5 mM citric acid, after 20 min at 121° C.",15.80 µg/mL and 15.96 µg/mL and 16.11 µg/mL and 16.53 µg/mL and 18.87 µg/mL and 18.13 µg/mL
same,ΔI−,"[5]; Buffer 20 mM TRIS + 5 mM citric acid, after minus before 20 min at 121° C.",+12.90 μg/ml
same,"I− before, Avg.","[5]; Buffer 20 mM TRIS + 5 mM citric acid, before autoclaving, average",4.00 µg/mL
same,I− before,"[5]; Buffer 20 mM TRIS + 5 mM citric acid, before autoclaving",4.08 µg/mL and 3.94 µg/mL and 3.42 µg/mL and 3.59 µg/mL and 4.44 µg/mL and 4.52 µg/mL
same,"I− after, average (row not labelled)","[5]; Buffer 20 mM TRIS/HCl, after 20 min at 121° C., average",14.22 µg/mL
same,I− after,"[5]; Buffer 20 mM TRIS/HCl, after 20 min at 121° C.",14.07 µg/mL and 14.19 µg/mL and 14.39 µg/mL
same,ΔI− (row not labelled),"[5]; Buffer 20 mM TRIS/HCl, after minus before 20 min at 121° C.",+9.89 μg/ml
same,"I− before, average (row not labelled)","[5]; Buffer 20 mM TRIS/HCl, before autoclaving, average",4.33 µg/mL
same,I− before,"[5]; Buffer 20 mM TRIS/HCl, before autoclaving",4.29 µg/mL and 4.44 µg/mL and 4.27 µg/mL
same,Stability under autoclaving (in words),"[5]; carboxylic acid neutralized by an amine, compared with TRIS/carboxylic acid where TRIS prevailed or TRIS/HCl",less stable
same,LD50 rats,"rats [6]; 20 mM TRIS + 5 mM citric acid, intravenous, 1 ml/min injection of 340 mg I/ml, data at 7 days",23.5 g I/kg bw
same,LD50 rats,"rats [6]; rat, in vivo, iv",20.0 g I/kg bw
same,LD50 in 20 mM TRIS with 5 mM citrate compared with 20 mM TRIS/HCl (in words),"rats [6]; rat, intravenous",statistically significantly higher LD50
